Like-named read-outs stand apart in the source and are kept apart here. A value given as a limit tells only on which side of the number the result lay.

Broadly, the EC50 is the concentration needed to bring the measured effect to its halfway point.

The subject of the experiment is IRF3. Kind of experiment: IRF3 activation assay in THP-1 Dual cells. Format: cell-based. Particulars: Homo sapiens, read-out: THP1 IRF3 EC50. In a few lines:
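THP-1 Dual cells (100,000/well) were treated with serially diluted compound for 24 h at 37° C, 5% CO2. IRF3 reporter activity in supernatant was read with QUANTI-Blue as absorbance at 620-655 nm after 2 h, with untreated cells as negative control. EC50 came from fitting percent control activity against log concentration.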

For `CCn1nc(C)cc1C(=O)Nc1nc2cc(C(N)=O)cc(C)c2n1C/C=C/Cn1c2ccc(C(N)=O)cc2c2cnc(-c3cc(C)nn3CC)c(C#N)c21` [Example S26, (E)-5-(4-(5-carbamoyl-2-(1-ethyl-3-methyl-1H-pyrazole-5-carboxamido)-7-methyl-1H-benzo[d]imidazol-1-yl)but-2-en-1-yl)-4-cyano-3-(1-ethyl-3-methyl-1H-pyrazol-5-yl)-5H-pyrido[4,3-b]indole-8-carboxamide], the EC50 runs as follows: (THP-1, Table 4A) 500 to 1000 nM; (THP-1, Table 4B) below 1000 nM; (THP-1, Table 4C) 500 to 1000 nM.

As to `CCn1nc(C)cc1C(=O)Nc1nc2cc(C(N)=O)cc(C)c2n1C/C=C/Cn1c2nc(-c3cc(C)nn3CC)ccc2c2cc(C(N)=O)cc(OC)c21` [Example S14, (E)-9-(4-(5-carbamoyl-2-(1-ethyl-3-methyl-1H-pyrazole-5-carboxamido)-7-methyl-1H-benzo[d]imidazol-1-yl)but-2-enyl)-2-(1-ethyl-3-methyl-1H-pyrazol-5-yl)-8-methoxy-9H-pyrido[2,3-b]indole-6-carboxamide], the 50% effective concentration (EC50) is at most 100 nM (THP-1, Table 4A); below 200 nM (THP-1, Table 4B); at most 50 nM (THP-1, Table 4C).

For `CCn1nc(C)cc1C(=O)Nc1nc2cc(C(N)=O)cc(OCCCNC(=O)[C@H](CC(=O)O)NC(=O)[C@H](CC(=O)O)NC(=O)[C@H](CCCNC(=N)N)NC(=O)[C@@H](N)CC(=O)O)c2n1C/C=C/Cn1c2nc(-c3cc(C)nn3CC)ncc2c2cc(C(N)=O)cc(OCCCOC)c21` [Example S42], for the setting “THP-1, Table 4C”, the EC50 fell in the range of 200 to 500 nM.

Consider `CCn1nc(C)cc1C(=O)Nc1nc2cc(C(N)=O)cc(C)c2n1C/C=C/Cn1c2nc(-c3cc(C)nn3CC)ncc2c2cc(C(N)=O)cc(OCCCN3CCOCC3)c21` [Example S11, (E)-9-(4-(5-carbamoyl-2-(1-ethyl-3-methyl-1H-pyrazole-5-carboxamido)-7-methyl-1H-benzo[d]imidazol-1-yl)but-2-enyl)-2-(1-ethyl-3-methyl-1H-pyrazol-5-yl)-8-(3-morpholinopropoxy)-9H-pyrimido[4,5-b]indole-6-carboxamide], for which the EC50 reads like this: (THP-1, Table 4A) at most 100 nM; (THP-1, Table 4B) below 200 nM; (THP-1, Table 4C) at most 50 nM.

For the compound `CCn1nc(C)cc1C(=O)Nc1nc2cc(C(N)=O)cc(OC)c2n1C/C=C/Cn1c2nc(-c3cc(C)nn3CC)ncc2c2cc(C(N)=O)cc(OCCCNC(=O)OCCC(=O)O)c21` [Example S52, (E)-3-(3-(6-carbamoyl-9-(4-(5-carbamoyl-2-(1-ethyl-3-methyl-1H-pyrazole-5-carboxamido)-7-methoxy-1H-benzo[d]imidazol-1-yl)but-2-enyl)-2-(1-ethyl-3-methyl-1H-pyrazol-5-yl)-9H-pyrimido[4,5-b]indol-8-yloxy)propylcarbamoyloxy)propanoic acid], the 50% effective concentration (EC50) (THP-1, Table 4C) was at most 50 nM.

In the case of `CCn1nc(C)cc1C(=O)Nc1nc2cc(C(N)=O)cc(OCCCNC(=O)OCCC(=O)O)c2n1C/C=C/Cn1c2nc(-c3cc(C)nn3CC)ncc2c2cc(C(N)=O)cc(OCCCOC)c21` [Example S44, (E)-3-(((3-((5-carbamoyl-1-(4-(6-carbamoyl-2-(1-ethyl-3-methyl-1H-pyrazol-5-yl)-8-(3-methoxypropoxy)-9H-pyrimido[4,5-b]indol-9-yl)but-2-en-1-yl)-2-(1-ethyl-3-methyl-1H-pyrazole-5-carboxamido)-1H-benzo[d]imidazol-7-yl)oxy)propyl)carbamoyl)oxy)propanoic acid], under “THP-1, Table 4C”, the EC50 is at most 50 nM.

As for `CCn1nc(C)cc1C(=O)Nc1nc2cc(C(N)=O)cc(OCCCOC(=O)c3cc(C)nn3CC)c2n1C/C=C/Cn1c2ccc(C(N)=O)cc2c2cnc(-c3cc(C)nn3CC)nc21` [Example S17, (E)-3-((5-carbamoyl-1-(4-(6-carbamoyl-2-(1-ethyl-3-methyl-1H-pyrazol-5-yl)-9H-pyrimido[4,5-b]indol-9-yl)but-2-en-1-yl)-2-(1-ethyl-3-methyl-1H-pyrazole-5-carboxamido)-1H-benzo[d]imidazol-7-yl)oxy)propyl 1-ethyl-3-methyl-1H-pyrazole-5-carboxylate], the EC50 was at most 100 nM (THP-1, Table 4A); below 200 nM (THP-1, Table 4B); at most 50 nM (THP-1, Table 4C).

For `CCn1nc(C)cc1C(=O)Nc1nc2cc(C(N)=O)cc(O)c2n1C/C=C/Cn1c2nc(-c3cc(C)nn3CC)ncc2c2cc(C(N)=O)cc(OCCCOC)c21` [Example S28, (E)-9-(4-(5-carbamoyl-2-(1-ethyl-3-methyl-1H-pyrazole-5-carboxamido)-7-hydroxy-1H-benzo[d]imidazol-1-yl)but-2-en-1-yl)-2-(1-ethyl-3-methyl-1H-pyrazol-5-yl)-8-(3-methoxypropoxy)-9H-pyrimido[4,5-b]indole-6-carboxamide], the half-maximal effective concentration (EC50) is, setting by setting: (THP-1, Table 4A) at most 100 nM; (THP-1, Table 4B) below 200 nM; (THP-1, Table 4C) at most 50 nM.

As to `CCn1nc(C)cc1C(=O)Nc1nc2cc(C(N)=O)cc(C)c2n1C/C=C/Cn1c2nc(-c3cc(C)nn3CC)ncc2c2cc(C(N)=O)cc(OCCCO)c21` [Example S13, (E)-9-(4-(5-carbamoyl-2-(1-ethyl-3-methyl-1H-pyrazole-5-carboxamido)-7-methyl-1H-benzo[d]imidazol-1-yl)but-2-enyl)-2-(1-ethyl-3-methyl-1H-pyrazol-5-yl)-8-(3-hydroxypropoxy)-9H-pyrimido[4,5-b]indole-6-carboxamide], the EC50 is, setting by setting: (THP-1, Table 4A) at most 100 nM; (THP-1, Table 4B) below 200 nM; (THP-1, Table 4C) at most 50 nM.

Take `CCn1nc(C)cc1C(=O)Nc1nc2cc(C(N)=O)cc(OCCCN3CCN(C)CC3)c2n1C/C=C/Cn1c2nc(-c3cc(C)nn3CC)ncc2c2cc(C(N)=O)cc(OCCCOC)c21` [Example S36, (E)-9-(4-(5-carbamoyl-2-(1-ethyl-3-methyl-1H-pyrazole-5-carboxamido)-7-(3-(4-methylpiperazin-1-yl)propoxy)-1H-benzo[d]imidazol-1-yl)but-2-en-1-yl)-2-(1-ethyl-3-methyl-1H-pyrazol-5-yl)-8-(3-methoxypropoxy)-9H-pyrimido[4,5-b]indole-6-carboxamide]: the EC50 (THP-1, Table 4C) fell in the range of 50 to 200 nM.

As for `CCn1nc(C)cc1C(=O)Nc1nc2cc(C(N)=O)cc(OC)c2n1C/C=C/Cn1c2ccc(C(N)=O)cc2c2cnc(-c3cc(C)nn3CC)nc21` [Example S4, (E)-9-(4-(5-carbamoyl-2-(1-ethyl-3-methyl-1H-pyrazole-5-carboxamido)-7-methoxy-1H-benzo[d]imidazol-1-yl)but-2-enyl)-2-(1-ethyl-3-methyl-1H-pyrazol-5-yl)-9H-pyrimido[4,5-d]indole-6-carboxamide], the EC50 was 500 to 1000 nM (THP-1, Table 4A); below 1000 nM (THP-1, Table 4B); 500 to 1000 nM (THP-1, Table 4C).

For `CCn1nc(C)cc1C(=O)Nc1nc2cc(C(N)=O)cc(C)c2n1C/C=C/Cn1c2ccc(C(N)=O)cc2c2ccc(-c3cc(C)nn3CC)nc21` [Example S5, (E)-9-(4-(5-carbamoyl-2-(1-ethyl-3-methyl-1H-pyrazole-5-carboxamido)-7-methyl-1H-benzo[d]imidazol-1-yl)but-2-en-1-yl)-2-(1-ethyl-3-methyl-1H-pyrazol-5-yl)-9H-pyrido[2,3-b]indole-6-carboxamide], the EC50 runs as follows: (THP-1, Table 4A) at most 100 nM; (THP-1, Table 4B) below 1000 nM; (THP-1, Table 4C) 50 to 200 nM.

In the case of `CCn1nc(C)cc1C(=O)Nc1nc2cc(C(N)=O)cc(OCCN3CCOCC3)c2n1C/C=C/Cn1c2nc(-c3cc(C)nn3CC)ncc2c2cc(C(N)=O)cc(OCCCOC)c21` [Example S43, (E)-9-(4-(5-carbamoyl-2-(1-ethyl-3-methyl-1H-pyrazole-5-carboxamido)-7-(2-morpholinoethoxy)-1H-benzo[d]imidazol-1-yl)but-2-en-1-yl)-2-(1-ethyl-3-methyl-1H-pyrazol-5-yl)-8-(3-methoxypropoxy)-9H-pyrimido[4,5-b]indole-6-carboxamide], the EC50 (THP-1, Table 4C) was in the range of 50 to 200 nM.

Regarding `CCn1nc(C)cc1C(=O)Nc1nc2cc(C(N)=O)c3ccoc3c2n1C/C=C/Cn1c2nc(-c3cc(C)nn3CC)ncc2c2cc(C(N)=O)cc(OCCCO)c21` [Example S69, (E)-1-(4-(6-carbamoyl-2-(1-ethyl-3-methyl-1H-pyrazol-5-yl)-8-(3-hydroxypropoxy)-9H-pyrimido[4,5-b]indol-9-yl)but-2-en-1-yl)-2-(1-ethyl-3-methyl-1H-pyrazole-5-carboxamido)-1H-benzofuro[6,7-d]imidazole-5-carboxamide], the EC50 (THP-1, Table 4A) was at most 100 nM.

As for `CCn1nc(C)cc1C(=O)Nc1nc2cc(C(N)=O)cc(C)c2n1C/C=C/Cn1c2ccc(C(N)=O)cc2c2cnc(-c3cc(C(F)(F)F)nn3CC)nc21` [Example S9, (E)-9-(4-(5-carbamoyl-2-(1-ethyl-3-methyl-1H-pyrazole-5-carboxamido)-7-methyl-1H-benzo[d]imidazol-1-yl)but-2-enyl)-2-(1-ethyl-3-(trifluoromethyl)-1H-pyrazol-5-yl)-9H-pyrimido[4,5-b]indole-6-carboxamide], the half-maximal effective concentration (EC50) was 100 to 500 nM (THP-1, Table 4A); below 1000 nM (THP-1, Table 4B); 200 to 500 nM (THP-1, Table 4C).

`CCn1nc(C)cc1C(=O)Nc1nc2cc(C(N)=O)cc(OCCOCCOCCC(=O)O)c2n1C/C=C/Cn1c2nc(-c3cc(C)nn3CC)ncc2c2cc(C(N)=O)cc(OCCCOC)c21` [Example S49, (E)-3-(2-(2-((5-carbamoyl-1-(4-(6-carbamoyl-2-(1-ethyl-3-methyl-1H-pyrazol-5-yl)-8-(3-methoxypropoxy)-9H-pyrimido[4,5-b]indol-9-yl)but-2-en-1-yl)-2-(1-ethyl-3-methyl-1H-pyrazole-5-carboxamido)-1H-benzo[d]imidazol-7-yl)oxy)ethoxy)ethoxy)propanoic acid]: the concentration giving a half-maximal response (EC50) (THP-1, Table 4C) is at most 50 nM.

For `CCn1nc(C)cc1C(=O)Nc1nc2cc(C(N)=O)cc(OCCO)c2n1C/C=C/Cn1c2nc(-c3cc(C)nn3CC)ncc2c2cc(C(N)=O)cc(OCCCOC)c21` [Example S41, (E)-9-(4-(5-carbamoyl-2-(1-ethyl-3-methyl-1H-pyrazole-5-carboxamido)-7-(2-hydroxyethoxy)-1H-benzo[d]imidazol-1-yl)but-2-en-1-yl)-2-(1-ethyl-3-methyl-1H-pyrazol-5-yl)-8-(3-methoxypropoxy)-9H-pyrimido[4,5-b]indole-6-carboxamide], the EC50 (THP-1, Table 4C) was at most 50 nM.

The values are drawn from patent US11596692B1 (Incyte Corporation, priority 2018, dated 2023).
